One data set has as its target T1, PDE-4A (Homo sapiens, UniProt P27815).
T1 construct: PDE-4A catalytic domain comprising amino acids 342-704; made in house; host or cells: Escherichia coli
The data set can be described thus: PDE-4A inhibitory assay (SPA). Type of data set: biochemical. An outline of the steps: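 Human recombinant PDE-4A catalytic domain (aa 342-704), E. coli-expressed. SPA with 1 μM [^3H]-cAMP substrate in 100 mM Tris-HCl pH 7.5, 5 mM MgCl2, 1% DMSO; 20 min at 22° C. Non-specific activity with 100 μM rolipram subtracted.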

The subject of the next data set is TNFα release. Nature of the data set: LPS-induced TNFα release in diluted human blood (ELISA). Type of data set: cell-based. The settings on record: LPS 1 μg/ml, human blood diluted 1:5, 24 h; read-out: IC50 value in the TNFα inhibitory assay. The source says:
Isolated leukocytes can be stimulated for the release of cytokines in different ways. Lipopolysaccharides (LPS) are a stimulus for the investigation of the TNFα release. LPS is part of bacterial cell walls and is released when the bacteria are killed (by antibiotics or the natural immune system). LPS stimulates in particular the activity of phagocytizing leukocytes (tissue macrophages, granulocytes, monocytes) and causes the infiltration of leukocytes from the peripheral blood into the affected tissue. A cytokine of special significance for these mechanisms is TNFα which is secreted in large amounts by the affected cells. The main source are here monocytes and macrophages. TNFα initiates and prolongs the inflammatory process in cooperation with other mediators.
For the investigation of the effect on the LPS-induced TNFα release a method was used which was described by Marx, D., Tassabehji, M., Heer, S., Hüttenbrink, K.-B., and I. Szelenyi, Pulmonary Pharmacology & Therapeutics (2002) 15, 7-15. The method is briefly: Human blood was taken from various donors, rendered incoagulable by the addition of 10 mM Na citrate and diluted 1:5 with RPMI 1640 cell culture medium. The test substances were added to the blood samples at various concentrations. 15 min later, the leukocytes were stimulated by the addition of lipopolysaccharides (LPS) from Salmonella abortus equi at a final concentration of 1 μg/ml. After the incubation of the test batches at 37° C. and under 5% CO2 in a water-saturated air for 24 h, the blood was centrifuged and the TNFα concentration in the cell-free supernatant was accurately measured using a purchasable ELISA (BD Biosciences) according to the manufacturer's instructions.
In general terms: In an ELISA, binding on a coated surface is turned into a signal by an enzyme label.

Bounds are passed on as bounds.

By IC50 is commonly meant the concentration at which inhibition is half-maximal. What is called melting point is the temperature of the solid-liquid transition.

T1 sequence (P27815 342-704): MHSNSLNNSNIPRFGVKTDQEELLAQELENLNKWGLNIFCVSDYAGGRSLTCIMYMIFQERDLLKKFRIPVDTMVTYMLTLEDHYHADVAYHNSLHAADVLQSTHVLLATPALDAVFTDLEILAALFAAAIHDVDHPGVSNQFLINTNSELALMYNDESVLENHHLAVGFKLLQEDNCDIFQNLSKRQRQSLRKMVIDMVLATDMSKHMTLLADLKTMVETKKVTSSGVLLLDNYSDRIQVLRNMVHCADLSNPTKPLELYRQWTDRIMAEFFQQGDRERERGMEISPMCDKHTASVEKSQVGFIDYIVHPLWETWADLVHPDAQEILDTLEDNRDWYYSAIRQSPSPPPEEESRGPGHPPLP

Take `CCOc1nc(N2CCNCC2)c2oc3nc(-c4ccccc4)cc(C)c3c2n1` [2-Ethoxy-7-phenyl-9-methyl-4-(piperazin-1-yl)-pyrido[3′,2′:4,5]furo[3,2-d]pyrimidine]: the melting point came to 175 °C. The compound also showed a concentration for half-maximal inhibition (IC50) against PDE-4A of 0.002 to 0.05 µM.
`CCOc1nc(N2CCNCC2)nc2c1sc1nc(-c3ccc[n+]([O-])c3)cc(C(F)(F)F)c12` [4-Ethoxy-7-(1-oxy-pyridin-3-yl)-2-(piperazin-1-yl)-9-trifluoromethyl-pyrido[3′,2′:4,5]thieno[3,2-d]pyrimidine]: the IC50 against PDE-4A was 0.002 to 0.05 µM; in the data set with TNFα release, under 2 µM.
Take `CCOc1nc(N2CCNCC2)nc2c1sc1nc(-c3cc[n+]([O-])cc3)cc(C(F)(F)F)c12` [4-Ethoxy-7-(1-oxy-pyridin-4-yl)-2-(piperazin-1-yl)-9-trifluoromethyl-pyrido[3′,2′:4,5]thieno[3,2-d]pyrimidine]: the results for the IC50 against PDE-4A and in the data set with TNFα release were 0.002 to 0.05 µM and under 2 µM, respectively.
In the case of `CCOc1nc(N2CCNCC2)nc2c1sc1nc(-c3ccc(-n4ccnc4)cc3)cc(C(F)(F)F)c12` [4-Ethoxy-7-(4-(1H-imidazol-1-yl)phenyl)-2-(piperazin-1-yl)-9-trifluoromethyl-pyrido[3′,2′:4,5]thieno[3,2-d]pyrimidine], the values for the IC50 on PDE-4A and with TNFα release were under 0.002 µM and under 2 µM, respectively.
`CCOc1nc(N2CCNCC2)nc2c1sc1nc(-c3ccc(-c4ccoc4)cc3)nc(C)c12` [4-Ethoxy-7-(4-[3-furyl]-phenyl)-9-methyl-2-piperazin-1-yl-thieno[2,3-d:4,5-d′]dipyrimidine]: the IC50 at PDE-4A is under 0.002 µM; with TNFα release, under 2 µM.
In the same order, the values of `CCOc1nc(N2CCNCC2)nc2c1sc1nc(-c3ccc(F)cc3)cc(C)c12` [4-Ethoxy-7-(4-fluoro-phenyl)-9-methyl-2-(piperazin-1-yl)-pyrido[3′,2′:4,5]thieno[3,2-d]pyrimidine] are 0.002 to 0.05 µM and under 2 µM.
As to `CCOc1nc(N2CCNCC2)nc2c1sc1nc(-c3ccc(OC)cc3)cc(C)c12` [4-Ethoxy-7-(4-methoxy-phenyl)-9-methyl-2-(piperazin-1-yl)-pyrido[3′,2′:4,5]thieno[3,2-d]pyrimidine], the IC50 was 0.002 to 0.05 µM at PDE-4A and under 2 µM in the data set on TNFα release.
In the case of `CCOc1nc(N2CCNCC2)nc2c1sc1nc(N3CCOCC3)cc(-c3ccccc3)c12` [4-Ethoxy-7-morpholino-9-phenyl-2-(piperazin-1-yl)-pyrido[3′,2′:4,5]thieno[3,2-d]pyrimidine], the IC50 is 0.002 to 0.05 µM on PDE-4A and under 2 µM in the data set with TNFα release.
As to `CCOc1nc(N2CCNCC2)nc2c1oc1nc(-c3ccccc3)cc(C)c12` [4-Ethoxy-7-phenyl-9-methyl-2-(piperazin-1-yl)-pyrido[3′,2′:4,5]furo[3,2-d]pyrimidine], the melting point was 131 to 132 °C. This compound displayed an IC50 against PDE-4A of 0.002 to 0.05 µM.
On to `CCOc1nc(N2CCNCC2)nc2c1sc1nc(-c3ccc(-c4cc[nH]c4)cc3)nc(C)c12` [4-Ethoxy-9-methyl-2-piperazin-1-yl-7-(4-[3-pyrrolyl]-phenyl)-thieno[2,3-d:4,5-d′]dipyrimidine], for which the IC50 on PDE-4A was 0.002 to 0.05 µM; in the data set with TNFα release, under 2 µM.
`C=Cc1ccc(-c2nc(C)c3c(n2)sc2c(OCC)nc(N4CCNCC4)nc23)cc1` [4-Ethoxy-9-methyl-2-piperazin-1-yl-7-(4-vinyl-phenyl)-thieno[2,3-d:4,5-d′]dipyrimidine] came in with a melting point of 165 to 166 °C. This compound came in with a half-maximal inhibitory concentration (IC50) against PDE-4A of 0.002 to 0.05 µM.
For `CCOc1nc(N2CCNCC2)nc2c1sc1nc(-c3ccc(-c4cccc(N)c4)cc3)nc(C)c12` [7-(3′-Aminobiphen-4-yl)-4-ethoxy-9-methyl-2-piperazin-1-yl-thieno[2,3-d:4,5-d′]dipyrimidine], the IC50 against PDE-4A is under 0.002 µM; in the data set with TNFα release, under 2 µM.
In the same order, the values of `CCOc1nc(N2CCNCC2)nc2c1sc1nc(C)c(Cc3ccc(N)cc3)c(C)c12` [8-(4-Amino-benzyl)-4-ethoxy-7,9-dimethyl-2-(piperazin-1-yl)-pyrido[3′,2′:4,5]thieno[3,2-d]pyrimidine] are 0.002 to 0.05 µM and under 2 µM.
The matching figures for `CCOc1nc(N2CCNCC2)nc2c1sc1nc(N3CCOCC3)c3c(c12)CCCC3` [8-Ethoxy-5-morpholino-10-piperazin-1-yl-pyrimido[4′,5′:4,5]thieno[2,3-c]-1,2,3,4-tetrahydro-isoquinoline]: 0.002 to 0.05 µM and under 2 µM.
The matching figures for `CCCOc1nc(N2CCNCC2)nc2c1sc1nc(-c3ccccc3)cc(C)c12` [9-Methyl-7-phenyl-2-(piperazin-1-yl)-4-n-propoxy-pyrido[3′,2′:4,5]thieno[3,2-d]pyrimidine]: 0.002 to 0.05 µM and under 2 µM.
`CCOc1nc(N2CCNCC2)c2sc3nc(-c4ccccc4)nc(C)c3c2n1` [Example 2, 2-ethoxy-9-methyl-4-piperazin-1-yl-7-phenyl-thieno[2,3-d:4,5-d′]dipyrimidine] gave a melting point of over 310 °C.
The same measure, in the same setting: under `C/C=C/C=C/C(O)c1ccc(-c2nc(C)c3c(n2)sc2c(OCC)nc(N4CCNCC4)nc23)cc1` (stereo not drawn) [Example 6, 4-ethoxy-7-(4-[{2E,4E}-1-hydroxyhexa-2,4-dienyl]phenyl)-9-methyl-2-piperazin-1-yl-thieno[2,3-d:4,5-d′]dipyrimidine] stands 149 to 150 °C.
`CCSc1nc(N2CCNCC2)c2sc3nc(-c4ccccc4)cc(C)c3c2n1` [Example 13, 2-ethylthio-9-methyl-7-phenyl-4-piperazin-1-yl-pyrido-[3′,2′:4,5]thieno[3,2-d]pyrimidine] had a melting point of 150 to 154 °C.
Take `CCS(=O)(=O)c1nc(N2CCNCC2)c2sc3nc(-c4ccccc4)cc(C)c3c2n1` [Example 15, 2-ethylsulfonyl-9-methyl-7-phenyl-4-piperazin-1-yl-pyrido-[3′,2′:4,5]thieno[3,2-d]pyrimidine]: the melting point was 190 °C (dec.).
As to `CCOc1nc(N2CCNCC2)nc2c1sc1nc(-c3ccc(NC=O)cc3)cc(C(F)(F)F)c12` [N-(4-(4-Ethoxy-9-trifluoromethyl-2-piperazin-1-yl-pyrido[3′,2′:4,5]thieno[3,2-d]pyrimidin-7-yl)-phenyl)-formamide], the figures for the IC50 on PDE-4A and in the data set with TNFα release were under 0.002 µM and under 2 µM, respectively.
The matching figures for `CCOc1nc(N2CCNCC2)nc2c1sc1nc(-c3ccc(NC(=O)c4ccncc4)cc3)cc(C(F)(F)F)c12` [N-(4-(4-Ethoxy-9-trifluoromethyl-2-piperazin-1-yl-pyrido[3′,2′:4,5]thieno[3,2-d]pyrimidin-7-yl)-phenyl)-isonicotinamide]: under 0.002 µM and under 2 µM.
As to `CCOc1nc(N2CCNCC2)nc2c1sc1nc(-c3ccc(NC(=O)c4cccnc4)cc3)cc(C(F)(F)F)c12` [N-(4-(4-Ethoxy-9-trifluoromethyl-2-piperazin-1-yl-pyrido[3′,2′:4,5]thieno[3,2-d]pyrimidin-7-yl)-phenyl)-nicotinamide], the values for the IC50 against PDE-4A and with TNFα release were under 0.002 µM and under 2 µM, respectively.
As for `CCOc1nc(N2CCNCC2)nc2c1sc1nc(-c3ccc(C(N)=NO)cc3)cc(C(F)(F)F)c12` [N′-Hydroxy-4-(4-ethoxy-9-trifluoromethyl-2-piperazin-1-yl-pyrido[3′,2′:4,5]thieno[3,2-d]pyrimidin-7-yl)-benzamidine bistrifluoroacetate], the IC50 was under 0.002 µM at PDE-4A and under 2 µM in the data set on TNFα release.

The record behind these values is US8058285B2, “Substituted pyrido [3′, 2′: 4, 5] thieno [3, 2-D] pyrimidines and pyrido [3′, 2′: 4, 5] furo [3, 2-D] pyrimidines used as inhibitors of the PDE-4 and/or the release of TNF-ALPHA” (The Medicines Company (Leipzig) GmbH, priority 2004, dated 2011).
